One may read the Dmax as the largest share of the target that was removed. One may read the DC50 as the concentration at which degradation of the target reaches its halfway point.

For the test, the target named is T1, BCL6 (Homo sapiens, UniProt P41182).
T1 construct: endogenous in cells; host or cells: T47D breast cancer epithelial cells
Nature of the test: Immunofluorescence protocol for high content imaging of BCL6 (degradation) in T47D cells, 3 days compound treatment. It is filed as cell-based. Conditions: for Dmax: T47D, read-out: Mean Dmax (%)** category; for DC50: read-out: Mean DC50 (nM)* category. The method, boiled down: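 T47D cells in RPMI1640-10% FBS were treated with an 11-point 3-fold dilution series (final top 0.1 or 1 μM) for 3 days at 37° C. After PFA fixation and Triton permeabilization, cells were immunostained with rabbit anti-BCL6 (1:300, overnight 4° C), Alexa-488 secondary, CellMask-647 and Hoechst, then imaged at 10×, 4 fields/well.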

Bounds are passed on as bounds.

As to `CNC(=O)COc1cc2cc(Nc3nc(N4CCC(O[C@H]5C[C@H](N6CCC(c7ccc8c(c7)C(=O)N(C7CCC(=O)NC7=O)C8=O)C(C)(C)C6)C5)CC4)ncc3Cl)ccc2n(C(C)C)c1=O` (stereo partly drawn) [Compound 399, 2-({6-[(5-chloro-2-{4-[(1r,3r)-3-{4-[2-(2,6-dioxopiperidin-3-yl)-1,3-dioxo-2,3-dihydro-1H-isoindol-5-yl]-3,3-dimethylpiperidin-1-yl}cyclobutoxy]piperidin-1-yl}pyrimidin-4-yl)amino]-2-oxo-1-(propan-2-yl)-1,2-dihydroquinolin-3-yl}oxy)-N-methylacetamide], the Dmax is at least 70% and the DC50 lay in the range of 10 to 50 nM.
For the compound `CNC(=O)COc1cc2cc(Nc3nc(N4CCC(O[C@H]5C[C@H](N6CC7(CCN(c8ccc9c(c8F)CN(C8CCC(=O)NC8=O)C9=O)C7)C6)C5)CC4)ncc3Cl)ccc2n(C(C)C)c1=O` (stereo partly drawn) [Compound 400, 2-({6-[(5-chloro-2-{4-[(1r,3r)-3-{6-[2-(2,6-dioxopiperidin-3-yl)-4-fluoro-1-oxo-2,3-dihydro-1H-isoindol-5-yl]-2,6-diazaspiro[3.4]octan-2-yl}cyclobutoxy]piperidin-1-yl}pyrimidin-4-yl)amino]-2-oxo-1-(propan-2-yl)-1,2-dihydroquinolin-3-yl}oxy)-N-methylacetamide], the Dmax is at least 70% and the DC50 is under 10 nM.
As to `CNC(=O)COc1cc2cc(Nc3nc(N4CCC(O[C@H]5C[C@H](N6CCCC7(CCN(c8ccc9c(c8F)CN(C8CCC(=O)NC8=O)C9=O)C7)C6)C5)CC4)ncc3Cl)ccc2n(C(C)C)c1=O` (stereo partly drawn) [Compound 401, 2-({6-[(5-chloro-2-{4-[(1r,3r)-3-{2-[2-(2,6-dioxopiperidin-3-yl)-4-fluoro-1-oxo-2,3-dihydro-1H-isoindol-5-yl]-2,7-diazaspiro[4.5]decan-7-yl}cyclobutoxy]piperidin-1-yl}pyrimidin-4-yl)amino]-2-oxo-1-(propan-2-yl)-1,2-dihydroquinolin-3-yl}oxy)-N-methylacetamide], the Dmax was at least 70% and the DC50 was under 10 nM.
For `CNC(=O)COc1cc2cc(Nc3nc(N4CCC(OC5CCC6(CC5)CN(c5ccc7c(c5C)CN(C5CCC(=O)NC5=O)C7=O)C6)CC4)ncc3Cl)ccc2n(C(C)C)c1=O` (stereo not drawn) [Compound 402, 2-{[6-({5-chloro-2-[4-({2-[2-(2,6-dioxopiperidin-3-yl)-4-methyl-1-oxo-2,3-dihydro-1H-isoindol-5-yl]-2-azaspiro[3.5]nonan-7-yl}oxy)piperidin-1-yl]pyrimidin-4-yl}amino)-2-oxo-1-(propan-2-yl)-1,2-dihydroquinolin-3-yl]oxy}-N-methylacetamide] the same measures were at least 70% and under 10 nM.
For `CNC(=O)COc1cc2cc(Nc3nc(N4CCC(CN5CCN(c6ccc7c(c6C)C(=O)N(C6CCC(=O)NC6=O)C7=O)CC5)CC4)ncc3Cl)ccc2n(C(C)C)c1=O` (stereo not drawn) [Compound 403, 2-{[6-({5-chloro-2-[4-({4-[2-(2,6-dioxopiperidin-3-yl)-4-methyl-1,3-dioxo-2,3-dihydro-1H-isoindol-5-yl]piperazin-1-yl}methyl)piperidin-1-yl]pyrimidin-4-yl}amino)-2-oxo-1-(propan-2-yl)-1,2-dihydroquinolin-3-yl]oxy}-N-methylacetamide] the same measures were 50 to 70% and under 10 nM.
For `CNC(=O)COc1cc2cc(Nc3nc(N4CCC(CN5CCN(c6ccc7c(c6)C(=O)N(C6CCC(=O)NC6=O)C7=O)CC5)CC4)ncc3Cl)ccc2n(C(C)C)c1=O` (stereo not drawn) [Compound 404, 2-{[6-({5-chloro-2-[4-({4-[2-(2,6-dioxopiperidin-3-yl)-1,3-dioxo-2,3-dihydro-1H-isoindol-5-yl]piperazin-1-yl}methyl)piperidin-1-yl]pyrimidin-4-yl}amino)-2-oxo-1-(propan-2-yl)-1,2-dihydroquinolin-3-yl]oxy}-N-methylacetamide], in that order: 50 to 70% and 10 to 50 nM.
On to `CNC(=O)COc1cc2cc(Nc3nc(N4CCC(O[C@H]5C[C@H](N6CCC7(CN(c8ccc9c(c8F)CN(C8CCC(=O)NC8=O)C9=O)C7)C6)C5)CC4)ncc3Cl)ccc2n(C(C)C)c1=O` (stereo partly drawn) [Compound 405, 2-({6-[(5-chloro-2-{4-[(1r,3r)-3-{2-[2-(2,6-dioxopiperidin-3-yl)-4-fluoro-1-oxo-2,3-dihydro-1H-isoindol-5-yl]-2,6-diazaspiro[3.4]octan-6-yl}cyclobutoxy]piperidin-1-yl}pyrimidin-4-yl)amino]-2-oxo-1-(propan-2-yl)-1,2-dihydroquinolin-3-yl}oxy)-N-methylacetamide], for which the Dmax was at least 70% and the DC50 was under 10 nM.
On to `CNC(=O)COc1cc2cc(Nc3nc(N4CCC(O[C@H]5C[C@H](N6C7CCC6CN(c6ccc8c(c6F)CN(C6CCC(=O)NC6=O)C8=O)C7)C5)CC4)ncc3Cl)ccc2n(C(C)C)c1=O` (stereo partly drawn) [Compound 406, 2-({6-[(5-chloro-2-{4-[(1r,3r)-3-{3-[2-(2,6-dioxopiperidin-3-yl)-4-fluoro-1-oxo-2,3-dihydro-1H-isoindol-5-yl]-3,8-diazabicyclo [3.2.1]octan-8-yl}cyclobutoxy]piperidin-1-yl}pyrimidin-4-yl)amino]-2-oxo-1-(propan-2-yl)-1,2-dihydroquinolin-3-yl}oxy)-N-methylacetamide], for which the Dmax is 50 to 70% and the DC50 is under 10 nM.
For `CNC(=O)COc1cc2cc(Nc3nc(N4CCC(O[C@H]5C[C@H](N6CCC(c7cc(OC)c8c(c7F)CN([C@H]7CCC(=O)NC7=O)C8=O)CC6)C5)CC4)ncc3Cl)ccc2n(C(C)C)c1=O` [Compound 407, 2-({6-[(5-chloro-2-{4-[(1r,3r)-3-(4-{2-[(3S)-2,6-dioxopiperidin-3-yl]-4-fluoro-7-methoxy-1-oxo-2,3-dihydro-1H-isoindol-5-yl}piperidin-1-yl)cyclobutoxy]piperidin-1-yl}pyrimidin-4-yl)amino]-2-oxo-1-(propan-2-yl)-1,2-dihydroquinolin-3-yl}oxy)-N-methylacetamide], in that order: at least 70% and under 10 nM.
For `CNC(=O)COc1cc2cc(Nc3nc(N4CCC(O[C@H]5C[C@H](N6CCN(c7cc8c(cc7F)C(=O)N(C7CCC(=O)NC7=O)C8=O)[C@H](C)C6)C5)CC4)ncc3Cl)ccc2n(C(C)C)c1=O` (stereo partly drawn) [Compound 408, 2-({6-[(5-chloro-2-{4-[(1r,3r)-3-[(3R)-4-[2-(2,6-dioxopiperidin-3-yl)-6-fluoro-1,3-dioxo-2,3-dihydro-1H-isoindol-5-yl]-3-methylpiperazin-1-yl]cyclobutoxy]piperidin-1-yl}pyrimidin-4-yl)amino]-2-oxo-1-(propan-2-yl)-1,2-dihydroquinolin-3-yl}oxy)-N-methylacetamide] the same measures were 50 to 70% and 50 to 100 nM.
For `CNC(=O)COc1cc2cc(Nc3nc(N4CCC(O[C@H]5C[C@H](N6CCC(c7c(OC)cc8c(c7F)CN(C7CCC(=O)NC7=O)C8=O)CC6)C5)CC4)ncc3Cl)ccc2n(C(C)C)c1=O` (stereo partly drawn) [Compound 409, 2-({6-[(5-chloro-2-{4-[(1r,3r)-3-{4-[2-(2,6-dioxopiperidin-3-yl)-4-fluoro-6-methoxy-1-oxo-2,3-dihydro-1H-isoindol-5-yl]piperidin-1-yl}cyclobutoxy]piperidin-1-yl}pyrimidin-4-yl)amino]-2-oxo-1-(propan-2-yl)-1,2-dihydroquinolin-3-yl}oxy)-N-methylacetamide], in that order: at least 70% and under 10 nM.
In the case of `CNC(=O)COc1cc2cc(Nc3nc(N4CCC(O[C@H]5C[C@H](N6CCC7(CC6)CN(c6ccc8c(c6F)CN(C6CCC(=O)NC6=O)C8=O)C7)C5)CC4)ncc3Cl)ccc2n(C(C)C)c1=O` (stereo partly drawn) [Compound 410, 2-({6-[(5-chloro-2-{4-[(1r,3r)-3-{2-[2-(2,6-dioxopiperidin-3-yl)-4-fluoro-1-oxo-2,3-dihydro-1H-isoindol-5-yl]-2,7-diazaspiro[3.5]nonan-7-yl}cyclobutoxy]piperidin-1-yl}pyrimidin-4-yl)amino]-2-oxo-1-(propan-2-yl)-1,2-dihydroquinolin-3-yl}oxy)-N-methylacetamide], the Dmax was at least 70% and the DC50 was under 10 nM.
For `CNC(=O)COc1cc2cc(Nc3nc(N4CCC(O[C@H]5C[C@H](N6CCC(c7ccc8c(c7F)CN(C7CCC(=O)NC7=O)C8=O)CC6)C5)CC4)ncc3Cl)ccc2n(C2CCCCC2)c1=O` (stereo partly drawn) [Compound 411, 2-({6-[(5-chloro-2-{4-[(1r,3r)-3-{4-[2-(2,6-dioxopiperidin-3-yl)-4-fluoro-1-oxo-2,3-dihydro-1H-isoindol-5-yl]piperidin-1-yl}cyclobutoxy]piperidin-1-yl}pyrimidin-4-yl)amino]-1-cyclohexyl-2-oxo-1,2-dihydroquinolin-3-yl}oxy)-N-methylacetamide] the same measures were at least 70% and under 10 nM.
For `CNC(=O)COc1cc2cc(Nc3nc(N4CCC(O[C@H]5C[C@H](N6CCN(c7ccc8c(c7Cl)C(=O)N(C7CCC(=O)NC7=O)C8=O)CC6)C5)CC4)ncc3Cl)ccc2n(C(C)C)c1=O` (stereo partly drawn) [Compound 412, 2-({6-[(5-chloro-2-{4-[(1r,3r)-3-{4-[4-chloro-2-(2,6-dioxopiperidin-3-yl)-1,3-dioxo-2,3-dihydro-1H-isoindol-5-yl]piperazin-1-yl}cyclobutoxy]piperidin-1-yl}pyrimidin-4-yl)amino]-2-oxo-1-(propan-2-yl)-1,2-dihydroquinolin-3-yl}oxy)-N-methylacetamide], in that order: 50 to 70% and 10 to 50 nM.
For `CNC(=O)COc1cc2cc(Nc3nc(N4CCC(O[C@H]5C[C@H](N6CCN(c7ccc8c(c7F)C(=O)N(C7CCC(=O)NC7=O)C8=O)CC6)C5)CC4)ncc3Cl)ccc2n(C(C)C)c1=O` (stereo partly drawn) [Compound 413, 2-({6-[(5-chloro-2-{4-[(1r,3r)-3-{4-[2-(2,6-dioxopiperidin-3-yl)-4-fluoro-1,3-dioxo-2,3-dihydro-1H-isoindol-5-yl]piperazin-1-yl}cyclobutoxy]piperidin-1-yl}pyrimidin-4-yl)amino]-2-oxo-1-(propan-2-yl)-1,2-dihydroquinolin-3-yl}oxy)-N-methylacetamide] the same measures were under 50% and 10 to 50 nM.

Values taken from patent US11986532B2 (Arvinas Operations, Inc., priority 2021, dated 2024).
